Data set [1] deals with MRAB (A. baumannii) ATCC BAA 1605. The format is cell-based, Acinetobacter baumannii. The note with it: CAMHB, 37° C., 18 hours; average of three experiments. Summed up:
(§1)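 Mid-log cultures grown in CAMHB and diluted to 1× 10^6 cfu/ml in PBS were mixed with an equal volume of peptide in CAMHB (80 µM to 0.63 µM twofold dilutions). MIC taken as the mean of three independent experiments.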

In data set [2] the test system is VRE (E. faecalis) ATCC 51575. It counts as cell-based, Enterococcus faecalis. The note with it: CAMHB, 37° C., 18 hours; average of three experiments. Summed up: as §1
Data set [3] concerns MRPA (P. aeruginosa) CCARM 2180. The format is cell-based, Pseudomonas aeruginosa. To be noted: CCARM 2180, 18 h. Summed up:
as §1

The nature of data set [4]: Solubility of antibacterial peptides in solution. It counts as physicochemical.
For data set [5], the system named is 30 species of Acinetobacter baumannii (A. baumannii). The format is cell-based. As for the experimental part:
In addition, the results obtained by measuring the minimum inhibitory concentrations of KSH29, KSH42 and KSH43 against 30 species of Acinetobacter baumannii (A. baumannii) are shown in Table 4 below.
The minimum inhibitory concentrations (MIC) against the 30 species of Acinetobacter baumannii were measured in the following manner.
The strain 1605 was purchased from ATCC (American Type Culture Collection, USA). In addition, the strain 40203 was purchased from the Korean Culture Center of Microorganisms.
The COL^R refers to resistance to colistin, the TGC^R refers to resistance to tigecycline, and the TGC^I refers to tigecycline intermediate strains.

Setting [6] is: against 30 species of Acinetobacter baumannii.

The solubility is the dissolved amount per volume that the medium holds. In general, MIC refers to the least concentration at which growth counts as inhibited. High values mean a less susceptible organism, low ones a more susceptible organism. In general, MIC50 refers to an inhibitory concentration at the 50% level, which refers to growth in some studies and to a panel of isolates in others. A lower MIC50 goes with higher susceptibility. By MIC90 is commonly meant an inhibitory concentration at the 90% level, which refers to growth in some studies and to a panel of isolates in others.

Converted amounts (≈) assume the structure as drawn. Like-named read-outs stand apart in the source and are kept apart here. Square brackets hold non-standard residues; d marks the D form. Peptide text beside a SMILES is read from it. Some results are limits rather than exact numbers.

Consider `CC[C@@H](C)[C@@H](NC(=O)[C@@H](Cc1c[nH]c2ccccc12)NC(=O)[C@H](NC(=O)[C@@H](CC(C)C)NC(=O)[C@H](N)Cc1c[nH]c2ccccc12)C(C)C)C(=O)N[C@H](Cc1c[nH]c2ccccc12)C(=O)N[C@H](CCCNC(=N)N)C(=O)N[C@H](CCCNC(=N)N)C(=O)N[C@H](CCC(N)=O)C(=O)N[C@H](CCCNC(=N)N)C(N)=O` [KSH31, wlvwiwrrqr] (H-[dW][dL][dV][dW][dI][dW][dR][dR][dQ][dR]-NH2; N-terminus assumed), for which the “MIC MRAB (A. baumannii) ATCC BAA 1605” value in data set [1] is 1.25 µM (≈ 1.87 µg/mL). Besides, the “MIC VRE (E. faecalis) ATCC 51575” value in data set [2] stood at 1.25 µM (≈ 1.87 µg/mL). Besides, the “MIC MRPA (P. aeruginosa) CCARM 2180” value in data set [3] is on record as above 5 µM. Besides, the solubility at 12 h in data set [4] (aqueous buffer) is at least 100 µM; in data set [4] (plasma or biological fluid), 25 µM (≈ 37.4 µg/mL); in data set [4] (water) it was above 2000 µM.

On to `CN[C@H](CC(C)C)C(=O)N[C@H]1C(=O)N[C@@H](CC(N)=O)C(=O)N[C@H]2C(=O)N[C@H]3C(=O)N[C@H](C(=O)N[C@H](C(=O)O)c4cc(O)cc(O)c4-c4cc3ccc4O)[C@H](O)c3ccc(c(Cl)c3)Oc3cc2cc(c3O[C@@H]2O[C@H](CO)[C@@H](O)[C@H](O)[C@H]2O[C@H]2C[C@](C)(N)[C@H](O)[C@H](C)O2)Oc2ccc(cc2Cl)[C@H]1O` [Vancomycin, reference compound], for which the solubility at 12 h in data set [4] (aqueous buffer, PBS, peptide 25 to 200 µM, 12 hours at room temperature, read-out: Solubility in solution PBS) is above 200 µM; in data set [4] (plasma or biological fluid, CAMHB, peptide 25 to 200 µM, 12 hours at room temperature, read-out: Solubility in solution CAMHB), above 200 µM; in data set [4] (water, H2O, observed for 12 hours at room temperature, read-out: Solubility in solution H2O), above 2000 µM.

For Colistin [reference compound], the MIC in data set [5] (A. baumannii strain 1) is on record as 0.63 µM; in data set [5] (A. baumannii strain 3 (COL^R)), above 40 µM; in data set [5] (A. baumannii strain 6 (TGC^I)), 2.5 µM; in data set [5] (A. baumannii strain 10), 2.5 µM; in data set [5] (A. baumannii strain 14) it was 1.25 µM; in data set [5] (A. baumannii strain 15) it was 0.63 µM. Further, the minimum inhibitory concentration (MIC) in data set [5] (A. baumannii strain 16) is below 0.31 µM; in data set [5] (A. baumannii strain 19) it was below 0.31 µM; in data set [5] (A. baumannii strain 22 (TGC^I)), 1.25 µM; in data set [5] (A. baumannii strain 39), below 0.31 µM; in data set [5] (A. baumannii strain 44), 1.25 µM; in data set [5] (A. baumannii strain 66), 1.25 µM. The MIC is 0.63 µM in data set [5] (A. baumannii strain 68); 1.25 µM in data set [5] (A. baumannii strain 69); 1.25 µM in data set [5] (A. baumannii strain 71); below 0.31 µM in data set [5] (A. baumannii strain 76); 0.63 µM in data set [5] (A. baumannii strain 80); 0.63 µM in data set [5] (A. baumannii strain 82). The MIC in data set [5] (A. baumannii strain 86) was 0.63 µM; in data set [5] (A. baumannii strain 89), 2.5 µM; in data set [5] (A. baumannii strain 102 (TGC^I)), 0.63 µM; in data set [5] (A. baumannii strain 127), 0.63 µM; in data set [5] (A. baumannii strain 141 (TGC^R)) it was below 0.31 µM; in data set [5] (A. baumannii strain 144), 0.63 µM. Besides, the minimal inhibitory concentration (MIC) was determined as 5 µM in data set [5] (A. baumannii strain 147 (TGC^R)); 1.25 µM in data set [5] (A. baumannii strain 152 (TGC^R)); 0.63 µM in data set [5] (A. baumannii strain 1605 (ATCC)); 1.25 µM in data set [5] (A. baumannii strain 10087); 1.25 µM in data set [5] (A. baumannii strain 19606); 0.63 µM in data set [5] (A. baumannii strain 40203 (Korean Culture Center of Microorganisms)). In addition, the solubility at 12 h is reported as above 200 µM in data set [4] (read-out: Solubility in solution CAMHB), above 2000 µM in data set [4] (read-out: Solubility in solution H2O) and above 200 µM in data set [4] (read-out: Solubility in solution PBS).

Turning to `CC(C)[C@@H](NC(=O)[C@H](N)Cc1c[nH]c2ccccc12)C(=O)N[C@@H](C(=O)N[C@H](Cc1c[nH]c2ccccc12)C(=O)N[C@@H](C(=O)N[C@@H](C(=O)N[C@H](Cc1c[nH]c2ccccc12)C(=O)N[C@H](CCCNC(=N)N)C(=O)N[C@H](CCCNC(=N)N)C(=O)N[C@H](CCCNC(=N)N)C(N)=O)C(C)C)C(C)C)C(C)C` [KSH42, wvvwvvwrrr] (H-[dW][dV][dV][dW][dV][dV][dW][dR][dR][dR]-NH2; N-terminus assumed), in data set [5] (setting [6]), the MIC50 came out at 1.25 µM (≈ 1.8 µg/mL). Also, the MIC90 in data set [5] (setting [6]) turned out to be 1.25 µM (≈ 1.8 µg/mL). Also, the solubility at 12 h in data set [4] (aqueous buffer) was at least 100 µM; in data set [4] (plasma or biological fluid), 100 µM (≈ 144 µg/mL); in data set [4] (water), above 2000 µM.

The values are drawn from patent US20230287044A1, “NOVEL ANTIBACTERIAL PEPTIDE AND USE THEREOF” (priority 2020, published 2023).
